Assay results from patent US7220576B2, “Methods and compositions for protein expression and purification” (Lifesensors, Inc., priority 2002, dated 2007).
Where “and” joins values, the source holds several entries; their conditions need not be identical. Equal values may be shown once. Entries after “also recorded” stand apart in the source; their conditions may differ. Non-standard residues stand in square brackets, D forms with d. Residues, ends and D or L forms follow the SMILES beside them. *: point of attachment. Sta = CC(C)C[C@H](N)[C@@H](O)CC(=O)O; Isovaleryl = CC(C)CC(=O)*

Experiments:
[1] = target: T1, Ulp1 Hydrolase (Saccharomyces cerevisiae, UniProt Q02724); assay: In vitro Ulp1 cleavage of His6SUMO-GFP under various additives/conditions; type: biochemical, yeast; settings: for Ulp1 activity remaining: 0.5 M Gdm HCl, hydrochloride
T1 construct: C-terminal His-tagged SUMO hydrolase/protease Ulp (403–621)p (21) (27) was expressed from pET24d; His tag (C); made in house; host or cells: E. coli Rosetta (DE3) pLysS, vector pET24d
T1 sequence (Q02724 403-621): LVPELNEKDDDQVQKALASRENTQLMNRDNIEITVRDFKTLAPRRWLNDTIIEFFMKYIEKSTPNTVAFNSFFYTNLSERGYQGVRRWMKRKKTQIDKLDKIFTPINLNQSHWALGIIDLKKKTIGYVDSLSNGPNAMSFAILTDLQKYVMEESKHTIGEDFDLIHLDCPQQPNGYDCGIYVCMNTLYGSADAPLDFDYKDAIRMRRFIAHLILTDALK
Description: Ni-NTA purified His6SUMO-GFP was incubated with Ulp1 under the indicated conditions for one hour at room temperature unless indicated otherwise. Low molecular weight markers (LMW) are also provided.
Ni-NTA purified His6SUMO-GFP was incubated with Ulp1 and 10 mM of various protease inhibitors for 1 hour at room temperature. Lane markers: Norm is addition of Ulp1 and N-ethymaleimide (NEM) to the substrate at the same time, Pre is the incubation of Ulp1 with NEM prior to the addition of substrate, +Ve is the absence of any inhibitor, −Ve is in the absence of Ulp1, lane 1 is with E-64, lane 2 is with EDTA, lane 3 is with leupeptin, lane 4 is with NEM, lane 5 is with pepstatin, lane 6 is with TLCK. Low molecular weight markers (LMW) are also provided.
The effects of various additives/conditions and temperature upon the in vitro cleavage reaction were determined as follows: His6smt3MeGFP was expressed from pET24d in Rosetta (DE3) pLysS (Novagen). The recombinant protein was purified as before using Ni-NTA agarose (Qiagen) and then buffer exchanged into 20 mM Tris-HCl pH 8.0, 150 mM NaCl and 5 mM β-mercaptoethanol using a PD-10 column (AP Biotech). Cleavage reactions were performed with 100 ug of the purified protein, 0.5 ul of enzyme, the appropriate amount of a stock solution of additive to generate the final concentrations listed in Table 4, plus the exchange buffer up to a final volume of 200 ul. Reactions were incubated for 1 hour at 37° C. except for those at 4° C. were incubated for 3 hours. […] Generally, His tagged proteins are purified on nickel columns and eluted with imidazole.

[2] = test system: E. coli; assay: GFP fluorescence in soluble fractions of E. coli; type: cell-based; settings: 37° C., approx. 0.1 mg soluble protein, Ex 485 nm/Em 510 nm
Description: GFP fluorescence was measured in soluble fractions (approx. 0.1 mg of soluble protein in a final volume of 40 μl) using Fluoroscan Accent FL fluorometer (LabSystems) with Excitation 485 nm/Emission 510 nm filter set with the exposure set to 40 sec. The data are presented in Arbitrary Units (AU).
The design and construction of all the UBL E. coli expression vectors has been described above. The DNA sequences, accession numbers of the UBL-GFP fusion proteins, and translation frames are shown FIGS. 25–32. […] Un-fused GFP is generally poorly expressed in E. coli. […] Induced cells were broken by sonication and soluble proteins were analyzed on SDS-polyacrylamide gels. […] To determine if the fusion proteins were folded correctly, we determined the fluorescence properties of proteins in the soluble fraction.

[3] = test system: E. coli; assay: Soluble versus insoluble fraction of fusion proteins expressed in E. coli; type: cell-based
Description: E. coli were harvested by mild centrifugation and washed once with PBS buffer. Cells were resuspended in 4 ml of PBS and ruptured by several pulses of sonication. Unbroken cells were removed by mild centrifugation (5 min at 1500×g) and supernatants were sonicated again to ensure complete cell lysis. An aliquot (5 μl) was mixed with 2% SDS to ensure that no viscosity is detected owing to lysis of unbroken cells. After ensuring that no unbroken cells remained in the lysate, insoluble material consisting of cell walls, inclusion bodies and membrane fragments was sedimented by centrifugation (18,000×g for 10 min). The supernatant was considered “Soluble fraction”.
The pellets were washed from any remaining soluble proteins, lipids and peptidoglycan as follows. Pellets were resuspended in 600 μl of PBS and to the suspensions 600 μl of solution containing 3 M urea and 1% Tri ton X100 was added. The suspension was briefly vortexed and insoluble material was collected by centrifugation as above. […]
Human nuclear receptor proteins, such as steroid receptors, contain ligand-binding domains. […] The ligand-binding domain of LXR was expressed as SUMO fusion in Rosetta plysS cell at 20° C. or 37° C. and the pattern of soluble and insoluble protein was analyzed. […] The original induced culture (I), supernatant from lysed cells (S) and resuspended pellet (P) were analyzed on 12% SDS-PAGE. […]

[4] = target: T2, SUMO hydrolase Ulp1 (Saccharomyces cerevisiae, UniProt Q02724); assay: In vitro cleavage of purified SUMO fusion proteins by SUMO hydrolase Ulp1; type: biochemical, yeast
T2 construct: C-terminal His-tagged SUMO hydrolase/protease Ulp (403–621)p (21) (27) was expressed from pET24d; His tag (C); made in house; host or cells: E. coli Rosetta (DE3) pLysS, vector pET24d
T2 sequence (Q02724 403-621): T1 sequence (Q02724 403-621)

[5] = protease inhibitors, 10 mM per FIG. 17 legend

**Q.** With `CC(C)C[C@H](NC(=O)[C@H]1O[C@@H]1C(=O)O)C(=O)NCCCCN=C(N)N` [E-64] as the compound, how does the “Effect of protease inhibitor on Ulp1 hydrolase activity” value (“Effect of protease inhibitor” below) [1, 5] read?
**A.** Cysteine protease inhibitor; no affect

**Q.** For `O=C(O)CN(CCN(CC(=O)O)CC(=O)O)CC(=O)O` [EDTA], which “Effect of protease inhibitor” value [1, 5] is on record?
**A.** no effect; also recorded: Metalloprotease inhibitor; no affect

**Q.** How did the Ulp1 activity remaining [1] turn out when `Cl.N=C(N)N` [Gdm HCl, guanadinium hydrochloride] was run?
**A.** Ulp1 shows 50% activity in 0.5 M but is completely

**Q.** And the Ulp1 activity remaining ([1]; listed as guanadinium hydrochloride)?
**A.** 50%

**Q.** And the “Effect on Ulp1 hydrolase activity” value ([1]; 1 M Gdm HCl)?
**A.** inactive in 1 M concentrations

**Q.** Which results are given for `c1c[nH]cn1` [Imidazole]?
**A.** Effect on Ulp1 hydrolase activity ([1]; imidazole 0 to 300 mM): Ulp1 shows similar activity in the range of; Effect on Ulp1 hydrolase activity ([1]; imidazole 0 to 300 mM, listed as imidazole): remarkably active

**Q.** For `CC(=O)N[C@@H](CC(C)C)C(=O)N[C@@H](CC(C)C)C(=O)N[C@H](C=O)CCCNC(=N)N` [Leupeptin], which “Effect of protease inhibitor” value [1, 5] is on record?
**A.** no effect; also recorded: like specificity; no affect

**Q.** With `CCN1C(=O)C=CC1=O` [N-ethylmaleimide] as the compound, how does the “Effect of protease inhibitor” value ([1]; enzyme preincubated with inhibitor before addition of substrate, listed as N-ethymaleimide) read?
**A.** active

**Q.** How did the “Effect of protease inhibitor” value [1, 5] turn out when `O=S(=O)(F)Cc1ccccc1` [PMSF] was run?
**A.** no effect; also recorded: Serine protease inhibitor; no affect

**Q.** For `CC(C)CC(=O)N[C@H](C(=O)N[C@H](C(=O)N[C@@H](CC(C)C)[C@@H](O)CC(=O)N[C@@H](C)C(=O)N[C@@H](CC(C)C)[C@@H](O)CC(=O)O)C(C)C)C(C)C` [Pepstatin] (Isovaleryl-VV[Sta]A[Sta]-OH), which “Effect of protease inhibitor” value [1, 5] is on record?
**A.** no effect; also recorded: Aspartate protease inhibitor; no affect

**Q.** With `CCCCCCCCCCCCOS(=O)(=O)[O-].[Na+]` [SDS] as the compound, how does the “Effect on Ulp1 hydrolase activity” value ([1]; 0.01% SDS) read?
**A.** highly active and 0.01% SDS blocks activity

**Q.** How did the “Effect of protease inhibitor” value [1, 5] turn out when `Cc1ccc(S(=O)(=O)N[C@@H](CCCCN)C(=O)CCl)cc1.Cl` [TLCK-HCl] was run?
**A.** chymotrypsin-like specificity; no affect

**Q.** And the “Effect of protease inhibitor” value ([1]; protease inhibitors, 10 mM per FIG. 17 legend, listed as TLCK)?
**A.** no effect

**Q.** `NC(N)=O` [Urea] was tested. Which “Effect on Ulp1 hydrolase activity” value ([1]; urea up to and including 2 M, listed as urea) did it give?
**A.** did not effect the activity; also recorded: does not inhibit the hydrolase

**Q.** For “SUMO-GFP: SUMO fused to N-terminus of GFP (SEQ ID NO: 5)”, which “GFP fluorescence of soluble fraction (correct folding)” value [2] is on record?
**A.** able to fluoresce

**Q.** What about the “Solubility of UBL-GFP fusion (soluble panel of stained gel)” value ([3]; 26° C. overnight, FIG. 4B) of the same compound?
**A.** able to solubilize fused GFP

**Q.** What about the “Solubility of UBL-GFP fusion (soluble panel of stained gel)” value ([3]; 37° C., FIG. 4A) of the same compound?
**A.** able to solublize the GFP

**Q.** And the “In vitro cleavage by Ulp1 / SUMO hydrolase” value ([4]; purified fusion protein from E. coli)?
**A.** completely digested

**Q.** “SUMO-β-galactosidase: SUMO fusion of E. coli β-galactosidase, a 110 KDa protein (SEQ ID NO: 31)” was tested. Which “Share of protein cleaved by SUMO hydrolase” value ([4]; 20 minutes, room temperature) did it give?
**A.** 100%

**Q.** For Triton-X, which “Effect on Ulp1 hydrolase activity” value ([1]; up to 1% triton X 100) is on record?
**A.** highly active
